Source: patent US4007210A, “Novel 3-triphenylmethoxy-1-alkynes, 3-triphenylmethoxy-1-trans-alkenyl-dialkyl-alanes, and lithium 3-triphenyl-methoxy-1-trans-alkenyl-dialkyl-alanates” (American Cyanamid Company, priority 1975, dated 1977)

What was measured:
gastric acid secretion = gastric acid secretion inhibition, "Shay rat" procedure; assay type: in vivo, rats (male, CFE strain); settings: intraduodenal dose 100 mg./kg. of body weight; 3 hours; 20% or more = active
Method: The novel compounds of the present invention are also effective inhibitors of gastric acid secretion and of ulcer development in experimental animals, and thus are potentially valuable as agents for the control of gastric acid secretion and of gastric erosion and as anti-ulcer agents. Gastric acid secretion inhibitory action is usually measured by the "Shay rat" procedure ^(1,2) with some modifications as follows.
The rats (male, CFE strain) were starved for 48 hours (water was given ad libitum) to permit evacuation of stomach contents. On the morning of the experiment, under ether anesthesia, the abdominal region was shaved and a midline incision (1-1 1/2 in.) was made with a scapel. With the help of a closed curved hemostate the duodenum was picked up. […]
The test compound or the vehicle, usually […], were injected into the duodenum as close as possible to the first ligature. […] The supernatant was collected, volume measured and recorded, 2 drops of a phenolphthalein indicator (1% in 95% ethanol) were added and the solution was titrated with 0.02N NaOH (or with 0.04N NaOH when large volumes of stomach contents were encountered) to pH 8.4 (because of usual coloring of the stomach contents, phenolphthalein was only used to permit visual indication that the end point was near) and the amount of acid present was calculated. […]

diastolic blood pressure = assay: hypotensive activity in anesthetized rats; assay type: in vivo, Male Wistar strain rats; settings: intravenous, minimal dose for a decrease of about 10 mm. in diastolic blood pressure; for minimal effective dose: Rattus norvegicus
Method: This procedure is a modification of the technique described by Pike et al., Prostaglandins, Nobel Symposium 2, Stockholm, June, 1966; p. 165.
Male Wistar strain rats (Royal Hart Farms) averaging approximately 250 grams in weight were fastened to rat boards in a supine position by means of canvas vests and limb ties. The femoral area was infiltrated subcutaneously with lidocaine and the iliac artery and vein were exposed and cannulated. Arterial blood pressure (systolic/diastolic) was recorded using a Statham P23 Db pressure, the animals were anethetized before use with pentobarbital, 30 mg./kg. of body weight intravenously, and also were given hexamethoxium bitartrate, 2 mg/kg. of body weight intravenously. The test compounds were prepared by ultrasonic dispersion in a saline-Tween 80 vehicle. A constant intravenous dose volume of 0.5 ml. was administered and test doses ranged from 0.1 to 10.0 mg./kg. of body weight. Increasing or decreasing doses were selected depending on the dose response obtained. In Table 2B below are set forth the minimal doses required to produce a decrease of about 10 mm. in diastolic blood pressure for typical compounds of the present invention.

[1] = test system: bronchospasms elicited by acetylcholine; assay: bronchodilator activity, Konzett procedure, acetylcholine; assay type: in vivo, guinea pigs; settings: Cavia porcellus; three logarithmic cumulative intravenous doses; column head printed choline; read-out: Bronchodilator Activity (Konzett Assays) ED50, choline
Method: (§1) Bronchodilator activity was determined in guinea pigs against bronchospasms elicited by intravenous injections of 5-hydroxytryptamine, histamine or acetylcholine by the Konzett procedure. [See J. Lulling, P. Lievens, F. El Sayed and J. Prignot, Arzeimittel-Forschung, 18 995 (1968).]
(§2) In the table which follows bronchodilator activity for representative compounds of this invention against one or more of the three spasmogenic agents is expressed as an ED50 determined from the results obtained with three logarithemic cumulative intravenous doses.

[2] = test system: indomethacin ulcers of the stomach; assay: protection against the ulcerogenic properties of indomethacin (ulcer score); assay type: in vivo, rats; settings: 2.5 or lower = active
Method: The compounds of this invention provide protection against the ulcerogenic properties of indomethacin. This assay was carried out in the following manner.
Rats were starved for 48 hours (water was given ad libitum). Indomethacin (20 mg./kg. of body weight) was administered by the subutaneous route and one-half the dose of the test compound was administered by gavage at the same time. After three hours, the second half of the test compound was administered also by Gavage. Five hours after the administration of indomethacin the animals were decapitated and the stomachs removed. The stomachs were washed with distilled water, blotted on gauze, cut along the larger curvature, and the contents rinsed with distilled water. The stomachs were spread out, pinned on a cork and visualized under magnifying glass for ulcers. The criteria for scoring of ulcers was as previously reported. [Abdel-Galil et al. Brit. J. Pharmac. Chemotherapy 33:1-14 (1968)].
1 Petechial hemorrhage or pin point ulcer
3 Many ulcers, a few large
4 Many ulcers, mainly large
Control animals treated with indomethacin but not test compound consistently give scores of about 3.0-3.5. Control animals treated with neither indomethacin nor test compound give scores of about 0.5-0.8. Compounds producing a score of 2.5 or lower are considered to be active.

[3] = test system: bronchospasms elicited by 5-hydroxytryptamine; assay: bronchodilator activity, Konzett procedure, 5-hydroxytryptamine; assay type: in vivo, guinea pigs; settings: Cavia porcellus; three logarithmic cumulative intravenous doses; spasmogen 5-hydroxytryptamine; read-out: Bronchodilator Activity (Konzett Assays) ED50, 5-hydroxytryptamine
Method: as §1, §2

[4] = test system: bronchospasms elicited by histamine; assay: bronchodilator activity, Konzett procedure, histamine; assay type: in vivo, guinea pigs; settings: Cavia porcellus; three logarithmic cumulative intravenous doses; spasmogen histamine; read-out: Bronchodilator Activity (Konzett Assays) ED50, histamine
Method: as §1, §2

[5] = total oral dose 25 mg./kg. of body weight, control score 3.2, scale 0 (normal stomach) to 4 (many ulcers, mainly large)

**Q.** With `CCCCCC(O)/C=C/[C@H]1CCC(=O)[C@@H]1CCCCC(C)(C)CC(=O)O` (relative stereo) [9-oxo-15-hydroxy-3,3-dimethyl-13-trans-prostenoic acid] as the compound, how does the “Percent Inhibition (gastric acid secretion)” value (gastric acid secretion) read?
**A.** 51%

**Q.** For `CC/C=C\CC(C)(O)/C=C/C1CCC(=O)C1C/C=C\CCCC(=O)O` (stereo not drawn) [9-oxo-15-hydroxy-15-methyl-5-cis,13-trans,17-cis-prostatrienoic acid], which “Minimal effective hypotensive dose” value (diastolic blood pressure) is on record?
**A.** < 2 mg./kg. of body wt.

**Q.** `CCCC#CC(O)CC[C@H]1CCC(=O)[C@@H]1CCCCCCC(=O)O` (stereo partly shown) [9-oxo-15-hydroxy-16-prostynoic acid] was tested. Which ED50 [1] did it give?
**A.** 0.00032 mg/kg

**Q.** How did the “Score, Treated” value [2, 5] turn out when `CCCCC(CC)C(O)/C=C/[C@H]1CCC(=O)[C@@H]1CCCCCCC(=O)O` (stereo partly drawn) [9-oxo-15-hydroxy-16-ethyl-13-trans-prostenoic acid] was run?
**A.** 1.7

**Q.** Which results are given for `CCCCC[C@@H](O)/C=C/[C@H]1CCC(=O)[C@@H]1CCCCSCC(=O)O` (relative stereo) [9-oxo-3-thia-15-epi-hydroxy-13-trans-prostenoic acid]?
**A.** Score, Treated [2, 5]: 2.3; minimal effective dose (diastolic blood pressure): 2 mg/kg

**Q.** For `CC/C=C\CC(O)/C=C/C1CCC(=O)C1C/C=C\CCCC(=O)O` (stereo not drawn) [9-oxo-15-hydroxy-5-cis,13-trans,17-cis-prostatrienoic acid], which “Minimal effective hypotensive dose” value (diastolic blood pressure) is on record?
**A.** < 2 mg./kg. of body wt.

**Q.** Which minimal effective dose (diastolic blood pressure) does the source give for `CCCCC[C@H](O)/C=C/[C@H]1CCCC(=O)[C@@H]1CCCCCCC(=O)O` (relative stereo) [9-oxo-10a-homo-15-hydroxy-13-trans-prostenoic acid] here?
**A.** 2 mg/kg

**Q.** How did the minimal effective dose (diastolic blood pressure) turn out when `CCCCC[C@H](O)/C=C/[C@H]1CCC(=O)[C@@H]1CCCCOCC(=O)OCC` (relative stereo) [Ethyl 3-oxa-9-oxo-15-hydroxy-13-trans-prostenoate] was run?
**A.** 0.2 mg/kg

**Q.** How did the minimal effective dose (diastolic blood pressure) turn out when `CCCCC[C@H](O)/C=C/[C@H]1CCC(=O)[C@@H]1CCCCOCC(=O)O` (relative stereo) [3-oxa-9-oxo-15-hydroxy-13-trans-prostenoic acid] was run?
**A.** < 2 mg/kg

**Q.** Which minimal effective dose (diastolic blood pressure) does the source give for `CCCCC[C@@H](O)/C=C/[C@H]1CCC(=O)[C@@H]1CCCCOCC(=O)OCC` (relative stereo) [Ethyl 3-oxa-9-oxo-15-epi-hydroxy-13-trans-prostenoate] here?
**A.** 0.2 mg/kg

**Q.** `CCCCC[C@H](O)/C=C/[C@H]1CCC(=O)[C@@H]1CCCCCC(C(=O)O)c1ccccc1` (stereo partly drawn) [2-phenyl-9-oxo-15-hydroxy-13-trans-prostenoic acid] was tested. Which minimal effective dose (diastolic blood pressure) did it give?
**A.** 8 mg/kg

**Q.** `CCCCCC(O)/C=C/C1CCC(=O)C1(C)CCCCCCC(=O)O` (stereo not drawn) [9-oxo-8β-methyl-15-hydroxy-13-trans-prostenoic acid] was tested. Which “Score, Treated” value ([2]; total oral dose 12.5 mg./kg. of body weight, control score 3.0, scale 0-4) did it give?
**A.** 2.0

**Q.** And the “Minimal effective hypotensive dose” value (diastolic blood pressure)?
**A.** 2 mg./kg. of body wt.

**Q.** Which results are given for `CCCCC[C@H](O)/C=C/[C@H]1CCC(=O)[C@@H]1CCCCCC(CC)C(=O)O` (stereo partly drawn) [9-oxo-15-hydroxy-2-ethyl-13-trans-prostenoic acid]?
**A.** ED50 [3]: 0.000329 mg/kg; Score, Treated ([2]; total oral dose 50 mg./kg. of body weight, control score 3.0, scale 0-4): 2.2; minimal effective dose (diastolic blood pressure): < 2 mg/kg; ED50 [4]: 0.000145 mg/kg; ED50 [1]: 0.000533 mg/kg

**Q.** `CCCCC[C@H](O)/C=C/[C@H]1CCC(=O)[C@@H]1CCCCSCC(=O)O` (relative stereo) [9-oxo-3-thia-15-hydroxy-13-trans-prostenoic acid] was tested. Which minimal effective dose (diastolic blood pressure) did it give?
**A.** 2 mg/kg

**Q.** How did the minimal effective dose (diastolic blood pressure) turn out when `CCCCC[C@H](O)/C=C/[C@H]1CCC(=O)[C@@H]1CCCCCC(C)C(=O)O` (stereo partly drawn) [2-methyl-9-oxo-15-hydroxy-13-trans-prostenoic acid] was run?
**A.** 2 mg/kg

**Q.** For `CCCCC[C@@H](O)/C=C/[C@H]1CCC(=O)[C@@H]1CCCCCC(C)C(=O)O` (stereo partly drawn) [2-methyl-9-oxo-15-epi-hydroxy-13-trans-prostenoic aid], which minimal effective dose (diastolic blood pressure) is on record?
**A.** 2 mg/kg

**Q.** `CCCCC[C@@H](O)/C=C/[C@H]1CCCC(=O)[C@@H]1CCCCCCC(=O)O` (relative stereo) [9-oxo-10a-homo-15-epi-hydroxy-13-trans-prostenoic acid] was tested. Which minimal effective dose (diastolic blood pressure) did it give?
**A.** 2 mg/kg

**Q.** For `CCCCCC(O)/C=C\[C@H]1CCC(=O)[C@@H]1CCCCCCC(=O)O` (relative stereo) [9-oxo-15-hydroxy-13-cis-prostenoic acid, 15-hydroxy-9-oxo-13-cis-prostenoic acid], which ED50 [3] is on record?
**A.** 0.000106 mg/kg

**Q.** What about the “Score, Treated” value ([2]; total oral dose 100 mg./kg. of body weight, control score 3.0, scale 0-4) of the same compound?
**A.** 1.3
